Measured values reported in patent US20090182020A1, “SUBSTITUTED BIS(HETERO)AROMATIC N--ETHYLPROPIOLAMIDES AND USE THEREOF FOR PRODUCTION OF MEDICAMENTS” (GRUNENTHAL GMBH, priority 2005, published 2009).

target: T1, mGluR5 receptor (pig) (Sus scrofa, UniProt I3LUI7); experiment: [3H]-MPEP bond in the mGluR5 receptor bond assay (pig brain homogenate); assay type: binding; conditions: 5 nM [3H]-MPEP; pig brain homogenate
T1 construct: 450 μg protein from brain homogenate is incubated with 5 nM ^3[H]-MPEP; from tissue; host or cells: pig brain halves without medulla, cerebellum and pons
Procedure: I. Method for Determining the Inhibition of the [^3H]-MPEP Bond in the mGluR5 Receptor Bond Assay
Pig brain homogenate is produced by homogenisation (Polytron PT 3000, Kinematica AG, 10,000 rpm for 90 seconds) of pig brain halves without medulla, cerebellum and pons in buffer pH 8.0 (30 mM Hepes, Sigma, order no. H3375+1 tablet complete to 100 ml, Roche Diagnostics, order no. 1836145) in the ratio 1:20 (brain weight/volume) and differential centrifugation at 900×g and 40,000×g. In each case, 450 μg protein from brain homogenate is incubated with 5 nM ^3[H]-MPEP (Tocris, order no. […]
Thereafter, the batches are filtered with the help of a Brandel Cell Harvester (Brandel, TYP Robotic 9600) on unifilter plates with glass fibre filter mats (Perkin Elmer, order no. 6005177) and subsequently washed with buffer (as above) 3 times with in each case 250 μl per sample. The filter plates are subsequently dried for 60 min at 55° C. 30 μL Ultima Gold™ scintillator (Packard BioScience, order no. 6013159) is subsequently added per well and the samples are measured after 3 hours on the β-counter (Mikrobeta, Perkin Elmer). The unspecific bond is determined by addition of 10 μM MPEP (Tocris, order no. 1212).

T1 sequence (I3LUI7 19-1212): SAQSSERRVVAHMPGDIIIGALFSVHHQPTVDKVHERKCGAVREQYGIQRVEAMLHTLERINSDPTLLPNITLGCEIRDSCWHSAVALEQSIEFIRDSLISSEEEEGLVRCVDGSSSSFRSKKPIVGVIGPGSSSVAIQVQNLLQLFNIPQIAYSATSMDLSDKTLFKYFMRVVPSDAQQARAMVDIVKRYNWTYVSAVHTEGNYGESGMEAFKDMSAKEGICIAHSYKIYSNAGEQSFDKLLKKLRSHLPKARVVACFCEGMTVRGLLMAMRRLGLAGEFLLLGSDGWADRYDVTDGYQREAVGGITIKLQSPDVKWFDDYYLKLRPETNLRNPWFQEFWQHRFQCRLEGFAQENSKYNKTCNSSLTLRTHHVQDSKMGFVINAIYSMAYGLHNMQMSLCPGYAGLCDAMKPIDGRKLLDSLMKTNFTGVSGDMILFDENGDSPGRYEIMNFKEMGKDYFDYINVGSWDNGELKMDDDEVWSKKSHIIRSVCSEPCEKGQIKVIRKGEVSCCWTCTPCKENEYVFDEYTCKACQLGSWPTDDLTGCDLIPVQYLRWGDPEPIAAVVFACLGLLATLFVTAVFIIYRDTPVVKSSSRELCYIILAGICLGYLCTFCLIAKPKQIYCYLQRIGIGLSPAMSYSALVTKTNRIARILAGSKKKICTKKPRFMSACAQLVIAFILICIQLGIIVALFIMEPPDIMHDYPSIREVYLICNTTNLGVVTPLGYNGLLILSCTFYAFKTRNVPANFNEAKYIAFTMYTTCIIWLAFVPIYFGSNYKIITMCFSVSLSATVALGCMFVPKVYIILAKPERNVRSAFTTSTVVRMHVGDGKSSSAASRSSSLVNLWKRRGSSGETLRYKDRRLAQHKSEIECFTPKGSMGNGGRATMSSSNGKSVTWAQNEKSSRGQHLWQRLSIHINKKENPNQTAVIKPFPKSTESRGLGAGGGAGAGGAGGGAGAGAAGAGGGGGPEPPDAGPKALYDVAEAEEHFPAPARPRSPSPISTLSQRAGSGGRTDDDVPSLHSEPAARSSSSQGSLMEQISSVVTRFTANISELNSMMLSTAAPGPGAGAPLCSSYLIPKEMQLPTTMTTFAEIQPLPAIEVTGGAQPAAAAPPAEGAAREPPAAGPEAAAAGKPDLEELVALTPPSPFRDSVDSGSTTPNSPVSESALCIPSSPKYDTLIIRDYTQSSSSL

Q: `CN(CCc1ccncc1)C(=O)C#Cc1cccc(Cl)c1` [Example 244, 3-(3-chlorophenyl)-N-methyl-N-(2-(pyridine-4-yl)ethyl)propiolamide] was tested. Which IC50 did it give?
A: The IC50 was 23 nM.

Q: Which IC50 does the source give for `O=C(C#Cc1cccc(Cl)c1)NCCc1ccccn1` [Example 3, 3-(3-chlorophenyl)-N-(2-(pyridine-2-yl)ethyl)propiolamide] here?
A: Its IC50 is 34 nM.

Q: With `CC(Cc1cccnc1)N(C)C(=O)C#Cc1cccc(Cl)c1` (centres unmarked) [Example 247, 3-(3-chlorophenyl)-N-methyl-N-(1-(pyridine-3-yl)propane-2-yl)propiolamide] as the compound, how does the IC50 read?
A: The IC50 was 140 nM.

Q: With `Cc1ccc(CCNC(=O)C#Cc2cccc(Cl)c2)cc1` [Example 225, 3-(3-chlorophenyl)-N-(4-methylphenethyl)propiolamide] as the compound, how does the IC50 read?
A: The IC50 was 210 nM.

Q: Which IC50 does the source give for `CCN(CCc1ccccc1)C(=O)C#Cc1cccc(Cl)c1` [Example 237, 3-(3-chlorophenyl)-N-ethyl-N-phenethylpropiolamide] here?
A: Its IC50 is 44 nM.

Q: For `CN(CCc1ccccn1)C(=O)C#Cc1cccc(Cl)c1` [Example 236, 3-(3-chlorophenyl)-N-methyl-N-(2-(pyridine-2-yl)ethyl)propiolamide], which IC50 is on record?
A: The IC50 was 29 nM.

Q: For `CC(Cc1ccccc1)N(C)C(=O)C#Cc1cccc(Cl)c1` (centres unmarked) [Example 241, 3-(3-chlorophenyl)-N-methyl-N-(1-phenylpropane-2-yl)propiolamide], which IC50 is on record?
A: Its IC50 is 13 nM.

Q: How did the IC50 turn out when `COc1ccccc1CCN(C)C(=O)C#Cc1cccc(Cl)c1` [Example 240, 3-(3-chlorophenyl)-N-(2-methoxyphenethyl)-N-methylpropiolamide] was run?
A: Its IC50 is 12 nM.

Q: Which IC50 does the source give for `Cc1ncccc1CCN(C)C(=O)C#Cc1cccc(Cl)c1` [Example 249, 3-(3-chlorophenyl)-N-methyl-N-(2-(2-methylpyridine-3-yl)ethyl)propiolamide] here?
A: Its IC50 is 120 nM.

Q: `Cc1cccc(CCN(C)C(=O)C#Cc2cccc(Cl)c2)c1` [Example 227, 3-(3-chlorophenyl)-N-methyl-N-(3-methylphenethyl)propiolamide] was tested. Which IC50 did it give?
A: The IC50 was 15 nM.

Q: With `O=C(C#Cc1cccc(Cl)c1)NCCc1ccccc1` [Example 2, 3-(3-chlorophenyl)-N-phenethylpropiolamide] as the compound, how does the IC50 read?
A: The IC50 was 44 nM.

Q: With `O=C(C#Cc1cccc(Cl)c1)NCCc1ccccc1F` [Example 215, 3-(3-chlorophenyl)-N-(2-fluorophenethyl)propiolamide] as the compound, how does the IC50 read?
A: The IC50 was 9 nM.

Q: For `O=C(C#Cc1cccc(Cl)c1)N(CCc1ccccc1)C1CC1` [Example 239, 3-(3-chlorophenyl)-N-cyclopropyl-N-phenethylpropiolamide], which IC50 is on record?
A: The IC50 was 280 nM.

Q: How did the IC50 turn out when `CC(C)N(CCc1ccccc1)C(=O)C#Cc1cccc(Cl)c1` [Example 238, 3-(3-chlorophenyl)-N-isopropyl-N-phenethylpropiolamide] was run?
A: Its IC50 is 70 nM.

Q: With `O=C(C#Cc1cccc(Cl)c1)NCCc1cccnc1` [Example 235, 3-(3-chlorophenyl)-N-(2-(pyridine-3-yl)ethyl)propiolamide] as the compound, how does the IC50 read?
A: Its IC50 is 7 nM.

Q: For `CN(CCc1cccnc1)C(=O)C#Cc1cccc(Cl)c1` [Example 243, 3-(3-chlorophenyl)-N-methyl-N-(2-(pyridine-3-yl)ethyl)propiolamide], which IC50 is on record?
A: The IC50 was 12 nM.

Q: For `Cc1ccccc1CCN(C)C(=O)C#Cc1cccc(Cl)c1` [Example 226, 3-(3-chlorophenyl)-N-methyl-N-(2-methylphenethyl)propiolamide], which IC50 is on record?
A: Its IC50 is 8 nM.

same assay, conditions: 10 μM test compound; 5 nM [3H]-MPEP; 450 μg protein pig brain homogenate; 60 min room temperature

Q: With `N#Cc1cccc(C#CC(=O)NCCc2ccccc2)c1` [Example 86, 3-(3-cyanophenyl)-N-phenethylpropiolamide] as the compound, how does the inhibition at 10 µM read?
A: The inhibition at 10 µM was 86%.

Q: How did the inhibition at 10 µM turn out when `O=C(C#Cc1ccccc1F)NCCc1ccc(F)cc1` [Example 151, N-(4-fluorophenethyl)-3-(2-fluorophenyl)propiolamide] was run?
A: The inhibition at 10 µM was 66%.

Q: Which inhibition at 10 µM does the source give for `Cc1ccc(CCNC(=O)C#Cc2cccc(C)c2)cc1` [Example 70, N-(4-methylphenethyl)-3-m-tolylpropiolamide] here?
A: Its inhibition at 10 µM is 89%.

Q: `COc1ccccc1CCNC(=O)C#Cc1cccc(C#N)c1` [Example 191, 3-(3-cyanophenyl)-N-(2-methoxyphenethyl)propiolamide] was tested. Which inhibition at 10 µM did it give?
A: The inhibition at 10 µM was 96%.

Q: `CN(CCc1ccccc1)C(=O)C#Cc1ccccc1F` [Example 42, 3-(2-fluorophenyl)-N-methyl-N-phenethylpropiolamide] was tested. Which inhibition at 10 µM did it give?
A: Its inhibition at 10 µM is 90%.

Q: Which inhibition at 10 µM does the source give for `COc1ccccc1CCNC(=O)C#Cc1cccc(C)c1` [Example 138, N-(2-methoxyphenethyl)-3-m-tolylpropiolamide] here?
A: Its inhibition at 10 µM is 97%.

Q: How did the inhibition at 10 µM turn out when `Cc1cc(C#CC(=O)NCCc2cccc(Cl)c2)ccc1F` [Example 62, N-(3-chlorophenethyl)-3-(4-fluoro-3-methylphenyl)propiolamide] was run?
A: The inhibition at 10 µM was 75%.

Q: How did the inhibition at 10 µM turn out when `COc1cccc(C#CC(=O)NCCc2cccc(Cl)c2)c1` [Example 58, N-(3-chlorophenethyl)-3-(3-methoxyphenyl)propiolamide] was run?
A: Its inhibition at 10 µM is 91%.

Q: Which inhibition at 10 µM does the source give for `O=C(C#Cc1ccc2[nH]ccc2c1)NCCc1ccccn1` [Example 38, 3-(1H-indol-5-yl)-N-(2-(pyridine-2-yl)ethyl)propiolamide] here?
A: The inhibition at 10 µM was 36%.

Q: For `O=C(C#Cc1cccs1)NCC(c1ccccc1)c1ccccc1` [Example 96, N-(2,2-diphenylethyl)-3-(thiophene-2-yl)propiolamide], which inhibition at 10 µM is on record?
A: Its inhibition at 10 µM is 31%.

Q: With `Cc1cccc(C#CC(=O)NCC(c2ccccc2)c2ccccc2)c1` [Example 71, N-(2,2-diphenylethyl)-3-m-tolylpropiolamide] as the compound, how does the inhibition at 10 µM read?
A: Its inhibition at 10 µM is 57%.

Q: For `N#Cc1cccc(C#CC(=O)NCC(c2ccccc2)c2ccccc2)c1` [Example 98, 3-(3-cyanophenyl)-N-(2,2-diphenylethyl)propiolamide], which inhibition at 10 µM is on record?
A: The inhibition at 10 µM was 40%.

Q: Which inhibition at 10 µM does the source give for `CN(CCc1ccccc1)C(=O)C#Cc1cccc(C(F)(F)F)c1` [Example 49, N-methyl-N-phenethyl-3-(3-(trifluoromethyl)phenyl)propiolamide] here?
A: Its inhibition at 10 µM is 108%.

Q: `Cc1ccc(C#CC(=O)N(C)CCc2ccccc2)c(C)c1` [Example 47, 3-(2,4-dimethylphenyl)-N-methyl-N-phenethylpropiolamide] was tested. Which inhibition at 10 µM did it give?
A: Its inhibition at 10 µM is 51%.

Q: Which inhibition at 10 µM does the source give for `Cc1cc(C#CC(=O)NCCc2ccccc2)ccc1F` [Example 82, 3-(4-fluoro-3-methylphenyl)-N-phenethylpropiolamide] here?
A: The inhibition at 10 µM was 69%.

Q: `Cc1cccc(C#CC(=O)NCCc2ccc(Cl)cc2)c1` [Example 139, N-(4-chlorophenethyl)-3-m-tolylpropiolamide] was tested. Which inhibition at 10 µM did it give?
A: Its inhibition at 10 µM is 91%.

Q: `O=C(C#Cc1cccs1)NCCc1ccccc1` [Example 85, N-phenethyl-3-(thiophene-2-yl)propiolamide] was tested. Which inhibition at 10 µM did it give?
A: The inhibition at 10 µM was 79%.

Q: Which inhibition at 10 µM does the source give for `O=C(C#Cc1cccc(Cl)c1)NCCc1cccc(Cl)c1` [Example 93, N-(3-chlorophenethyl)-3-(3-chlorophenyl)propiolamide] here?
A: The inhibition at 10 µM was 89%.

Q: For `O=C(C#Cc1ccccc1)NCCc1ccccc1` [Example 83, N-phenethyl-3-phenylpropiolamide], which inhibition at 10 µM is on record?
A: The inhibition at 10 µM was 91%.

Q: `COc1cccc(C#CC(=O)NCCc2c[nH]c3ccccc23)c1` [Example 87, N-(2-(1H-indol-3-yl)ethyl)-3-(3-methoxyphenyl)propiolamide] was tested. Which inhibition at 10 µM did it give?
A: Its inhibition at 10 µM is 42%.

Q: How did the inhibition at 10 µM turn out when `O=C(C#Cc1cccs1)NCCc1ccccn1` [Example 25, N-(2-(pyridine-2-yl)ethyl)-3-thiophene-2-yl-propiolamide] was run?
A: Its inhibition at 10 µM is 68%.

Q: Which inhibition at 10 µM does the source give for `Cc1ccc(CCNC(=O)C#Cc2cccs2)cc1` [Example 95, N-(4-methylphenethyl)-3-(thiophene-2-yl)propiolamide] here?
A: The inhibition at 10 µM was 75%.

Q: `COc1ccccc1CCNC(=O)C#Cc1cccs1` [Example 189, N-(2-methoxyphenethyl)-3-(thiophene-2-yl)propiolamide] was tested. Which inhibition at 10 µM did it give?
A: The inhibition at 10 µM was 85%.

Q: `CN(CCc1ccccc1)C(=O)C#Cc1ccccc1C#N` [Example 55, 3-(2-cyanophenyl)-N-methyl-N-phenethylpropiolamide] was tested. Which inhibition at 10 µM did it give?
A: Its inhibition at 10 µM is 40%.

Q: Which inhibition at 10 µM does the source give for `Cc1cc(C#CC(=O)NCCc2ccccn2)ccc1F` [Example 7, 3-(4-fluoro-3-methylphenyl)-N-(2-(pyridine-2-yl)ethyl)propiolamide] here?
A: The inhibition at 10 µM was 82%.

Q: How did the inhibition at 10 µM turn out when `COc1ccccc1CCNC(=O)C#Cc1ccc(F)cc1F` [Example 193, 3-(2,4-difluorophenyl)-N-(2-methoxyphenethyl)propiolamide] was run?
A: The inhibition at 10 µM was 31%.

Q: With `COc1cccc(C#CC(=O)NCCc2ccc(Cl)cc2)c1` [Example 133, N-(4-chlorophenethyl)-3-(3-methoxyphenyl)propiolamide] as the compound, how does the inhibition at 10 µM read?
A: The inhibition at 10 µM was 65%.

Q: With `Cc1cccc(C#CC(=O)NCCc2ccccn2)c1` [Example 18, N-(2-(pyridine-2-yl)ethyl)-3-m-tolyl-propiolamide] as the compound, how does the inhibition at 10 µM read?
A: The inhibition at 10 µM was 90%.

Q: How did the inhibition at 10 µM turn out when `Cc1ccc(CCNC(=O)C#Cc2ccccc2)cc1` [Example 66, N-(4-methylphenethyl)-3-phenylpropiolamide] was run?
A: Its inhibition at 10 µM is 64%.

Q: How did the inhibition at 10 µM turn out when `Cc1cccc(C#CC(=O)NCCc2cccc(Cl)c2)c1` [Example 69, N-(3-chlorophenethyl)-3-m-tolylpropiolamide] was run?
A: The inhibition at 10 µM was 107%.

Q: `COc1ccccc1CCNC(=O)C#Cc1ccccc1F` [Example 194, 3-(2-fluorophenyl)-N-(2-methoxyphenethyl)propiolamide] was tested. Which inhibition at 10 µM did it give?
A: Its inhibition at 10 µM is 81%.

Q: How did the inhibition at 10 µM turn out when `O=C(C#Cc1ccccc1F)NCCc1cccs1` [Example 118, 3-(2-fluorophenyl)-N-(2-(thiophene-2-yl)ethyl)propiolamide] was run?
A: The inhibition at 10 µM was 67%.

Q: How did the inhibition at 10 µM turn out when `COc1cccc(C#CC(=O)NCCc2ccccc2OC)c1` [Example 132, N-(2-methoxyphenethyl)-3-(3-methoxyphenyl)propiolamide] was run?
A: The inhibition at 10 µM was 83%.
